Assay type in all cases: in vivo, C57BL/6 mice
Test [1] has as its system Mouse Model of CALD (ORN06 oropharyngeal aspiration). Put plainly: Alveolar wall thickness in H&E-stained lung cryosections, ORN06 mouse model of CALD. Conditions: i.p. at 24 and 48 hours after ORN06 (DANA 10 mg/kg, AMPCA 0.1 mg/kg), day 3, FIGS. 5 and 6. Here is the method: (§1) To determine if DANA or AMPCA affect CALD symptoms in mice, 5 week old 20 g male and female C57BL/6 mice (#000664; Jackson Laboratories, Bar Harbor, ME) were given an oropharyngeal aspiration of 1 mg/kg (20 μg/mouse) ORN06/LyoVec (LyoVec protects the ssRNA from degradation and facilitates cellular uptake) (InvivoGen, San Diego, CA) in 50 μl phosphate-buffered saline (PBS) to induce symptoms of pulmonary inflammation, or an oropharyngeal aspiration of an equal volume of PBS as a control, following Current protocols in mouse biology 2, 167-175 (2012). At 24 and 48 hours after ORN06 insult, some of ORN06-treated mice were given intraperitoneal injections of 100 μl PBS, or 10 mg/kg of DANA (N-Acetyl-2,3-dehydro-2-deoxyneuraminic acid; #252926-10MG, EMD, Millipore, Burlington, MA) or 0.1 mg/kg of 2-piperidinecarboxylic acid, 4-amino-1-methyl (AMPCA, #A00285-13785-026, Sundia, Shanghai, China) in 100 μl PBS. […]
(§2) After collecting BALF, the lungs from the mice were harvested and inflated with Surgipath frozen section compound (#3801480, Leica, Buffalo Grove, IL) and preserved at −80° C. […] Image quantification was done using Image J (NIH, Bethesda, MD). […] Using ‘ Straight’ command, the length of the alveolar wall on the image was measured and was recorded with the ‘Measure’ command. 8 measurements of the alveolar wall thickness were recorded for each image. […]

For test [2] the test system is unchanged. Put plainly: Clot-like aggregates in BALF cell spots, ORN06 mouse model of CALD. The following applies: male mice; irregularly shaped 2-10 μm object staining dark blue with Wright-Giemsa; i.p. at 24 and 48 hours after ORN06 (DANA 10 mg/kg, AMPCA 0.1 mg/kg); day 3; FIG. 4.
For test [3] the test system is unchanged. Put plainly: BALF cell types by Wright-Giemsa staining, ORN06 mouse model of CALD. The following applies: for ORN06-induced increase in the number of monocyte/macrophages in the BALF / counts of specific cell types in the BALF, treated groups versus Control group: i.p. at 24 and 48 hours after ORN06 (DANA 10 mg/kg, AMPCA 0.1 mg/kg); for ORN06-induced increase in the number of monocyte/macrophages in the BALF: day 3, FIG. 2A; for counts of specific cell types in the BALF, treated groups versus Control group: day 3, FIG. 2A-C. Here is the method: (§3) To determine if DANA or AMPCA affect CALD symptoms in mice, 5 week old 20 g male and female C57BL/6 mice (#000664; Jackson Laboratories, Bar Harbor, ME) were given an oropharyngeal aspiration of 1 mg/kg (20 μg/mouse) ORN06/LyoVec (LyoVec protects the ssRNA from degradation and facilitates cellular uptake) (InvivoGen, San Diego, CA) in 50 μl phosphate-buffered saline (PBS) to induce symptoms of pulmonary inflammation, or an oropharyngeal aspiration of an equal volume of PBS as a control, following Current protocols in mouse biology 2, 167-175 (2012). At 24 and 48 hours after ORN06 insult, some of ORN06-treated mice were given intraperitoneal injections of 100 μl PBS, or 10 mg/kg of DANA (N-Acetyl-2,3-dehydro-2-deoxyneuraminic acid; #252926-10MG, EMD, Millipore, Burlington, MA) or 0.1 mg/kg of 2-piperidinecarboxylic acid, 4-amino-1-methyl (AMPCA, #A00285-13785-026, Sundia, Shanghai, China) in 100 μl PBS. The DANA was dissolved in water to 2.5 mg/ml, and then diluted in PBS The AMPCA was dissolved directly in PBS. At day 3, mice were euthanized by CO2 inhalation, and BALF was obtained as previously described in Current protocols in mouse biology 2, 167-175 (2012); Proceedings of the National Academy of Sciences of the United States of America 112, 8385-8390 (2015); Public Library of Science ONE 9, e93730 (2014); and Nature Scientific Reports 8; 7 (1):15069 (2017). The experiment was performed in accordance with the recommendations in the Guide for the Care and use of Laboratory Animals of the National Institutes of Health. The Texas A&M University Animal Use and Care Committee approved the protocol.
Total cells in the BALF were then quantified. The BALF cells were processed to prepare cell spots as described previously in Public Library of Science ONE 9, e93730 (2014), Nature Scientific Reports 8; 7 (1):15069 (2017); American Journal of Physiology Lung Cellular and Molecular Physiology, 1; 318 (1):L165-L179 (2020). After air drying for 48 hours at room temperature, some of the prepared BALF cell spots were fixed and treated with Wright-Giemsa stain (#08711, Polysciences, Inc., Warrington, PA) following the manufacturer's instructions. One hundred and fifty cells per mouse were examined and quantified for cell type following the manufacturer's instructions. Imaging of BALF cell spots stained with Wright-Giemsa stain was done with a Nikon Eclipse Ti2 microscope.

Test [4] has the same test system. Put plainly: Percent of exudate-containing alveoli in lung cryosections, ORN06 mouse model of CALD. Conditions: male mice, i.p. at 24 and 48 hours after ORN06 (DANA 10 mg/kg, AMPCA 0.1 mg/kg), day 3, FIG. 7. Here is the method: as §1, §2
For test [5] the test system is unchanged. Put plainly: Total cells in BALF, ORN06 mouse model of CALD. Conditions: i.p. at 24 and 48 hours after ORN06 insult (DANA 10 mg/kg, AMPCA 0.1 mg/kg); BALF at day 3; FIG. 1.
Test [6] shares this test system. Put plainly: BALF cell types by immunochemistry on cell spots, ORN06 mouse model of CALD. Conditions: i.p. at 24 and 48 hours after ORN06 (DANA 10 mg/kg, AMPCA 0.1 mg/kg), day 3, FIG. 3. Here is the method:
as §3
Immunochemistry on BALF cell spots and counts of cells was performed as described previously in Public Library of Science ONE 9, e93730 (2014); Proceedings of the National Academy of Sciences of the United States of America 112, 8385-8390 (2015); Nature Scientific Reports 8; 7 (1):15069 (2017); American Journal of Physiology Lung Cellular and Molecular Physiology, 1; 318 (1)1,165-L179 (2020) using anti-CD3 (100202, clone 17A2, BioLegend, San Diego, CA) to detect T-cells, anti-CD11b (101202, clone M1/70, BioLegend) to detect blood and inflammatory macrophages, anti-CD11c (M100-3, clone 223H7, MBL International, Woburn, MA) to detect alveolar macrophages and dendritic cells, anti-CD45 (103102, clone 30-F11, BioLegend) for total leukocytes, anti-Ly6G (127602, clone 1A8, BioLegend) to detect neutrophils, with isotype-matched irrelevant rat antibodies diluted to 5 μg/ml in PBS containing 2% (w:v) bovine serum albumin (PBS-BSA) (VWR, Radnor, PA). Cells were then incubated in coplin jars containing PBS, with 6 changes of buffer over 30 minutes. […] Using a 40× objective, at least 100 cells from each stained BALF spot were examined and the percent positive cells was recorded.

The test system is the same in test [7]. Put plainly: Percentage of alveolar airspace area occupied by exudate, ORN06 mouse model of CALD. Conditions: lung cryosections; i.p. at 24 and 48 hours after ORN06 (DANA 10 mg/kg, AMPCA 0.1 mg/kg); day 3; FIG. 8. Here is the method:
To determine if DANA or AMPCA affect CALD symptoms in mice, 5 week old 20 g male and female C57BL/6 mice (#000664; Jackson Laboratories, Bar Harbor, ME) were given an oropharyngeal aspiration of 1 mg/kg (20 μg/mouse) ORN06/LyoVec (LyoVec protects the ssRNA from degradation and facilitates cellular uptake) (InvivoGen, San Diego, CA) in 50 μl phosphate-buffered saline (PBS) to induce symptoms of pulmonary inflammation, or an oropharyngeal aspiration of an equal volume of PBS as a control, following Current protocols in mouse biology 2, 167-175 (2012). […]
as §2
Using the Threshold function and the Measure Tool in NIH ImageJ, the percent area of each 20× objective image of lung cryosections described above containing tissue (not counting pale pink exudates) was measured, and this percentage was subtracted from 100% to obtain the percent area of the image occupied by the alveolar airspace. […]

The subject of test [8] is Mouse Model of COVID-19-Like Cytokine Storm (ORN06). Put plainly: Serum cytokine levels (LEGENDplex Mouse Inflammation Panel), ORN06 mouse model. The following applies: AMPCA 0.1 mg/kg i.p. at 24 and 48 hours after ORN06, serum at day 3. Here is the method:
as §3
Serum samples collected at day 3 post control or ORN06 insult were processed following the manufacturer's protocol. (#740150, LEGENDplex Mouse Inflammation Panel (13-plex), Biolegend, San Diego, CA) for simultaneous quantification of mouse cytokines using an Accuri C6 (BD Bioscience, Franklin Lakes, NJ) flow cytometer.

In the case of `CC(=O)N[C@H]1[C@H]([C@H](O)[C@H](O)CO)OC(C(=O)O)=C[C@@H]1O` [DANA, 2-deoxy-2,3-didehydro-N-acetylneuraminic acid], in test [1], the “ORN06-induced alveolar wall thickness increase” value is “significantly reduced”. In test [2], the “clot-like aggregates in the BAL cell spots” value was “no clot-like aggregates were observed in the BAL cell spots from 2 of the 3”. Further, in test [3], the “ORN06-induced increase in the number of monocyte/macrophages in the BALF” value is “decreased the ORN06-induced increase in the number of monocyte/macrophages” and the “counts of specific cell types in the BALF, treated groups versus Control group” value is “no significant difference”. For the same molecule, in test [4], the “percentage of exudate-containing alveoli” value is recorded as “decreased the percentage of exudate-containing alveoli”. Moreover, in test [5], the “ORN06-induced increase in the number of cells in the BALF” value is “ameliorated the ORN06-induced increase in the number of cells in the BALF” and the “number of cells in the BALF, treated groups versus Control group” value is listed as “no significant difference”. Besides, in test [6], the “ORN06-induced increase in the number of CD11c positive macrophages and/or dendritic cells in the BALF” value is reported as “decreased the ORN06-induced increase in the number of CD11c positive macrophages and/or dendritic cells” and the “ORN06-induced increase in the number of CD45-positive leukocytes in the BALF” value was “decreased the ORN06-induced increase”. Also, the “percentage of the alveolar airspace area occupied by exudate” value in test [7] was “decreased the percentage of the alveolar airspace area occupied by exudate”.
As for `CN1CCC(N)CC1C(=O)O` (centres unmarked) [AMPCA, 4-amino-1-methyl-2-piperidine carboxylic acid], the “ORN06-induced alveolar wall thickness increase” value in test [1] was “significantly reduced”. The “clot-like aggregates in the BAL cell spots” value in test [2] is reported as “No clot-like aggregates were observed”. The “ORN06-induced increase in the number of lymphocytes in the BALF” value in test [3] (AMPCA 0.1 mg/kg i.p. at 24 and 48 hours after ORN06, day 3, FIG. 2B) was “decreased the ORN06-induced increase in the number of monocyte/macrophages and lymphocytes”. For the same molecule, in test [3], the “ORN06-induced increase in the number of monocyte/macrophages in the BALF” value is on record as “decreased the ORN06-induced increase in the number of monocyte/macrophages” and the “counts of specific cell types in the BALF, treated groups versus Control group” value is “no significant difference”. The “percentage of exudate-containing alveoli” value in test [4] is recorded as “decreased the percentage of exudate-containing alveoli”. Besides, in test [5], the “ORN06-induced increase in the number of cells in the BALF” value is “ameliorated the ORN06-induced increase in the number of cells in the BALF” and the “number of cells in the BALF, treated groups versus Control group” value is “no significant difference”. Also, in test [6], the “ORN06-induced increase in the number of CD11c positive macrophages and/or dendritic cells in the BALF” value is “decreased the ORN06-induced increase in the number of CD11c positive macrophages and/or dendritic cells” and the “ORN06-induced increase in the number of CD45-positive leukocytes in the BALF” value was “decreased the ORN06-induced increase”. Also, the “serum levels of IL-1β” value in test [8] (FIG. 9A) is reported as “decreased the serum levels of both cytokines”. Also, the “serum levels of IL-6” value in test [8] (FIG. 9B) was “decreased the serum levels of both cytokines”. In addition, the “serum levels of IL-12p70” value in test [8] (FIG. 9C) is recorded as “decreased the serum levels of IL-12p70”. Further, in test [8] (FIG. 9D), the “serum levels of IL-23” value is “decreased the serum levels”. In addition, the “serum levels of IL-27” value in test [8] (FIG. 9E) is “decreased the serum levels”. The “percentage of the alveolar airspace area occupied by exudate” value in test [7] was “decreased the percentage of the alveolar airspace area occupied by exudate”.

Source of the values: US12667581B2, “Therapeutics for treatment of COVID-19 symptoms” (The Texas A&M University System, priority 2020, dated 2026).
